Measured values published in PubChem BioAssay (NCI).
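48-hour exposure; five concentrations; linearly interpolated endpoints. The concentration for 50% growth inhibition is given as GI50. The concentration for full growth arrest is given as TGI.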

Legend:
Assay in all cases: NCI-60 cell line screen, 48 h
MDA-MB-231 breast = test system: MDA-MB-231 breast
HCC-2998 colon = test system: HCC-2998 colon
NCI-H460 lung = test system: NCI-H460 lung
BT-549 breast = test system: BT-549 breast
A498 renal = test system: A498 renal
A549 NSCLC = test system: A549 NSCLC
CAKI-1 renal = test system: CAKI-1 renal
CCRF-CEM leukemia = test system: CCRF-CEM leukemia
SK-MEL-28 melanoma = test system: SK-MEL-28 melanoma
OVCAR-8 ovarian = test system: OVCAR-8 ovarian
MOLT-4 leukemia = test system: MOLT-4 leukemia
OVCAR-5 ovarian = test system: OVCAR-5 ovarian
SNB-75 CNS = test system: SNB-75 CNS
RXF 393 renal = test system: RXF 393 renal
K-562 leukemia = test system: K-562 leukemia
KM12 colon = test system: KM12 colon
IGROV1 ovarian = test system: IGROV1 ovarian
EKVX NSCLC = test system: EKVX NSCLC
PC-3 prostate = test system: PC-3 prostate
SK-MEL-5 melanoma = test system: SK-MEL-5 melanoma
HOP-92 NSCLC = test system: HOP-92 NSCLC
OVCAR-4 ovarian = test system: OVCAR-4 ovarian
ACHN renal = test system: ACHN renal
UACC-62 melanoma = test system: UACC-62 melanoma
TK-10 renal = test system: TK-10 renal
M14 melanoma = test system: M14 melanoma
DU-145 prostate = test system: DU-145 prostate
NCI/ADR-RES ovarian = test system: NCI/ADR-RES ovarian
HT29 colon = test system: HT29 colon
MALME-3M melanoma = test system: MALME-3M melanoma

SMILES: Fc1ccccc1CNc1nc(SCCN2CCOCC2)nc2c1cnn2CC(Cl)c1ccc(Br)cc1 (centres undefined)
- GI50 (MDA-MB-231 breast): 3.6 µM
- TGI (MDA-MB-231 breast): > 100 µM
- GI50 (HCC-2998 colon): 3.94 µM
- TGI (HCC-2998 colon): > 100 µM
- GI50 (NCI-H460 lung): 3.99 µM
- TGI (NCI-H460 lung): > 100 µM
- GI50 (BT-549 breast): 20.9 µM
- TGI (BT-549 breast): > 100 µM
- GI50 (A498 renal): 8.94 µM
- TGI (A498 renal): > 100 µM
- GI50 (A549 NSCLC): 4.06 µM
- TGI (A549 NSCLC): > 100 µM
- GI50 (CAKI-1 renal): 3.83 µM
- TGI (CAKI-1 renal): > 100 µM
- GI50 (CCRF-CEM leukemia): 3.34 µM
- TGI (CCRF-CEM leukemia): > 100 µM
- GI50 (SK-MEL-28 melanoma): 4.99 µM
- TGI (SK-MEL-28 melanoma): > 100 µM
- GI50 (OVCAR-8 ovarian): 6.36 µM
- TGI (OVCAR-8 ovarian): > 100 µM
- GI50 (MOLT-4 leukemia): 3.46 µM
- TGI (MOLT-4 leukemia): > 100 µM
- GI50 (OVCAR-5 ovarian): > 100 µM
- TGI (OVCAR-5 ovarian): > 100 µM
- GI50 (SNB-75 CNS): 2.71 µM
- TGI (SNB-75 CNS): > 100 µM
- GI50 (RXF 393 renal): 1.43 µM
- TGI (RXF 393 renal): 5.27 µM
- GI50 (K-562 leukemia): 2.55 µM
- TGI (K-562 leukemia): > 100 µM
- GI50 (KM12 colon): 3.74 µM
- TGI (KM12 colon): > 100 µM
- GI50 (IGROV1 ovarian): > 100 µM
- TGI (IGROV1 ovarian): > 100 µM
- GI50 (EKVX NSCLC): 5.28 µM
- TGI (EKVX NSCLC): > 100 µM
- GI50 (PC-3 prostate): 3.73 µM
- TGI (PC-3 prostate): > 100 µM
- GI50 (SK-MEL-5 melanoma): 2.87 µM
- TGI (SK-MEL-5 melanoma): 10.7 µM
- GI50 (HOP-92 NSCLC): 3.96 µM
- TGI (HOP-92 NSCLC): > 100 µM
- GI50 (OVCAR-4 ovarian): 3.49 µM
- TGI (OVCAR-4 ovarian): > 100 µM
- GI50 (ACHN renal): 4.39 µM
- TGI (ACHN renal): > 100 µM
- GI50 (UACC-62 melanoma): 2.09 µM
- TGI (UACC-62 melanoma): 5.23 µM
- GI50 (TK-10 renal): > 100 µM
- TGI (TK-10 renal): > 100 µM
- GI50 (M14 melanoma): 4.19 µM
- TGI (M14 melanoma): > 100 µM
- GI50 (DU-145 prostate): 49.6 µM
- TGI (DU-145 prostate): > 100 µM
- GI50 (NCI/ADR-RES ovarian): 4.24 µM
- TGI (NCI/ADR-RES ovarian): > 100 µM
- GI50 (HT29 colon): 1.47 µM
- TGI (HT29 colon): 3.39 µM
- GI50 (MALME-3M melanoma): 2.54 µM
